Reference: patent publication US11274131B2, “IgM-mediated receptor clustering and cell modulation” (MAYO FOUNDATION FOR MEDICAL EDUCATION AND RESEARCH, priority 2007, dated 2022)

Assays:
CpG-treated DCs = assay: Antigen persistence in CpG-treated DCs; format: cell-based, mouse; conditions: CpG-treated wild type DCs or B7DC−/− DCs
Method: FIG. 15 is a series of histograms showing restoration of antigen persistence in CpG-treated DCs expressing Kb-peptide constructs upon treatment with the appropriate MTab. DCs were untreated (blue) or treated with 10 ug/mL CpG (red) 48 hours prior to harvesting. They were then pulsed with Ovalbumin-Alexa647 and either hIgM12, hIgM22, or 28-13-3, and Ovalbumin-647 levels were measured in CD11c positive cells by flow cytometry.
The ability of Kb-peptide expressing DCs to alter antigen processing was then tested. Untreated DCs take up fluorochrome-labeled protein, and the fluorochrome labeled protein persists over 24 hours, as measured by flow cytometry. DCs treated with a Toll receptor agonist (LPS, CpG, or Polyl:C) 24 hours prior to addition of protein lose their ability to take up and maintain this antigen. […] The ability of B7DC−/− DCs transduced with the Kb-peptide constructs was compared to wild type DCs or knockouts transduced with B7DC.

[1] = system: OT-II CD4+CD25+ Treg cells; assay: Conversion of OT-II Tregs to Th17 phenotype by antibody-treated DCs; format: cell-based, mouse
Method: FIG. 16 is a series of plots showing conversion of OT-II CD4 Treg cells to a Th17 phenotype by co-incubation with DCs expressing the Kb-peptide constructs treated with MTabs. OT-II CD4+CD25+ splenic Tregs were isolated by MACS and added 1:1 to DCs pulsed with Ovalbumin and treated with hIgM12, hIgM22, or 28-13-3. After 48 hours, the T cells were harvested, stained with CD4, and internally stained with FoxP3 PE and IL-17 APC. Expression was assayed by flow cytometry, and cells were gated on CD4.
This was measured by loss of FoxP3 expression and gain of IL-17 expression, corresponding to loss of a repressive phenotype and gain of an effector phenotype. Studies were conducted to compare the ability of wild type DCs or B7DC−/− B7DC reconstituted DCs to B7DC−/− transduced with the Kb-peptide constructs to convert Tregs to Th17 polarized T cells. DCs were pulsed with 10 ug/mL ovalbumin and treated with 10 ug/mL of either hIgM12, hIgM22, or 28-13-3, 24 hours prior to addition of T cells. Splenic OT-II Tregs were isolated by MACs and added to DC cultures at a 1:1 ratio. After 48 hours of co-incubation, T cells were harvested, stained with CD4 PerCP, and permeabilized and stained with FoxP3 PE and IL-17 APC. Samples were run by flow cytometry and cells were gated by high CD4 expression. Conversion was measured by loss of FoxP3 expression and gain of IL-17 expression.

NF-κB = assay: NFκB activation assay in mouse DC; format: cell-based
Method: DC of murine or human origin were stimulated with 10 μg/ml of control antibody or the MTAb B7-DC XAb for 30 minutes, while stimulation of oligodendrocytes was achieved by addition of 10 μg/ml of MTAb sHIgM39, 04, or sHIgM22 for same period of time. All groups were fixed and permeabilized using a Cytofix/Cytoperm Kit (BD PharMingen, San Diego, Calif.) for 20 minutes on ice. Subsequently, rabbit antibody against a C terminal peptide of NF-kB (sc372) was added, incubated for 30 minutes at 4° C. and washed three times with Cytoperm Buffer. Anti-rabbit FITC was used to detect the bound sc372 antibody by incubating the cells for 30 minutes (green). Cells were washed three times before the nuclei were stained with DAPI (blue) (Sigma Aldrich). The cells were then harvested from the plate, cytospin slides were made, and cells were visualized using a LSM510 Laser scanning confocal microscope (Carl-Zeiss Inc, Oberkochen, Germany) at 40.times magnification.

B7-DC XAb: human monoclonal IgM from a Waldenstrom's macroglobulinemia patient that binds and cross-links B7-DC on DC
antigen persistence (CpG-treated DCs): restored to untreated levels | conversion of Tregs to Th17 polarized cells ([1]; knockout DCs expressing Kb-12p9A): responded | conversion of Tregs to Th17 polarized cells ([1]; wild type DCs and B7DC reconstituted knockouts, 10 ug/mL): converted Tregs to Th17 polarized cells | NF-κB activation (NF-κB; DC from CD40 KO mice): absence of NF-κB activation | NF-κB activation (NF-κB; DC from wild type mice): activating NF-κB | NF-κB mobilization (NF-κB; TREM-2 KO cells): mobilization of NF-κB
